Source: patent US20250281498A1, “FUSED AMINO PYRIMIDINE COMPOUNDS FOR TREATMENT OF SYNUCLEINOPATHIES AND TDP-43 PROTEINOPATHIES” (Ovid Therapeutics Inc., priority 2024, published 2025)

Tests used:
KCC2 [1] = molecular target: T1, KCC2 (Homo sapiens, UniProt Q9H2X9); assay: cellular thermal shift assay (CETSA) in HEK-293 cells expressing KCC2; format: binding
T1 construct: expressed in transfected cells; host or cells: HEK-293 (ATCC CRL-1573)
T1 sequence (Q9H2X9 1-1116 isoform Q9H2X9-2): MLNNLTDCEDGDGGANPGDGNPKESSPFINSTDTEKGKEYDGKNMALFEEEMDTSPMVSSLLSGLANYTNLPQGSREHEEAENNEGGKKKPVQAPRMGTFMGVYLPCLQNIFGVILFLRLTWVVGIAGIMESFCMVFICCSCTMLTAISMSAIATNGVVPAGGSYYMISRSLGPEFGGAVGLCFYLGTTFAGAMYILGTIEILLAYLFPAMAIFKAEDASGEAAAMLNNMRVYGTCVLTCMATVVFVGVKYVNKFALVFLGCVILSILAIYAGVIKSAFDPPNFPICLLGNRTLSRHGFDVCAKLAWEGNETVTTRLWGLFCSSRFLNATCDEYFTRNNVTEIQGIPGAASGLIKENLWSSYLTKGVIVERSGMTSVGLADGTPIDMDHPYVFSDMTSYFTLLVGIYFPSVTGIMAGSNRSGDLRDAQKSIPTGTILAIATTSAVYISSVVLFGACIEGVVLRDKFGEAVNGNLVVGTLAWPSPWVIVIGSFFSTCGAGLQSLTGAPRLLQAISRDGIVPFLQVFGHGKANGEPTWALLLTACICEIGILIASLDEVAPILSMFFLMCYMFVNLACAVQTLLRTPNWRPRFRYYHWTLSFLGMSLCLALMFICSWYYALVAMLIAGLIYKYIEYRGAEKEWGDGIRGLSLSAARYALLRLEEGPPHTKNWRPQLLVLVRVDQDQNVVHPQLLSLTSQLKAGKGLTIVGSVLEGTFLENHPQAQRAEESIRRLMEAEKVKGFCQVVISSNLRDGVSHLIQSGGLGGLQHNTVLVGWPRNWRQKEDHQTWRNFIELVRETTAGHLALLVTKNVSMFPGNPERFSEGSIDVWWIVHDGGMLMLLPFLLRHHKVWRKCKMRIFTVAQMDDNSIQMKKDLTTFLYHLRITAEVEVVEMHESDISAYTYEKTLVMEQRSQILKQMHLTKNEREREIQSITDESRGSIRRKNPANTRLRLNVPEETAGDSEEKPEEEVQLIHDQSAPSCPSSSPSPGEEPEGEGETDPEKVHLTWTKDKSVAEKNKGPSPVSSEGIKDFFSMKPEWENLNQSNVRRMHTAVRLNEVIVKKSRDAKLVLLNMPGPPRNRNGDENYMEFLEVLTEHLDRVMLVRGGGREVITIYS
Experimental: Cell Culture and biotinylation. HEK-293 cells were purchased from ATCC (CRL-1573) and transfected with human KCC2 and GFP expression plasmids using Lipofectamine 2000. Cells were utilized for experimentation 48-72 h following transfection. Cells were biotinylated at 4° C. using NHS-Biotin. Following lysis and purification on immobilized avidin beads, cell surface and total fractions were subject to immunoblotting as outlined previously (Conway et al., 2017, supra).
Determining if compounds in SSA directly interact with KCC2. This was tested using a cellular thermal shift assay (CETSA), which measures the ability of a drug to modify the thermal stability of its target in whole cells (Kawatkar et al., ACS Chem. Biol. 14, 1913-1920 (2019); Martinez et al., Sci Rep 8, 9472 (2018)).
2×10^6 transfected HEK-293 cells were incubated with 30 μM drug or vehicle for 90 min at 37° C. and then heated from 37-58° C. for 5 min. Cells were rapidly chilled to 25° C. and NP40 was added to a final concentration […] to snap freezing in liquid nitrogen. […]
Aliquots of HEK-293 cells expressing KCC2 were exposed to 30 μM SSA, heated from 37-55° C. The remaining level of soluble native KCC2 at each temperature was measured by immunoblotting and normalized to the level seen at 37° C. which was given a value of 1. […]

[2] = test system: acute brain slices exposed to 0-Mg; assay: late recurrent discharges in acute brain slices exposed to 0-Mg
KCC2 [3] = molecular target: T1, KCC2; assay: FLIPR TI+ flux assay, HEK-293 cells expressing KCC2; format: cell-based
Experimental: A multi-tiered high-throughput screening assay was used, leveraging a proprietary library of 1.3 million small molecule compounds from AstraZeneca (Cambridge, UK) to identify chemical entities capable of activating KCC2. A single point concentration of 30 μM was used to identify potassium flux using an established thallium (TI+) influx FLIPR assay as the primary read out in HEK-293 cells overexpressing KCC2 (Cardarelli et al., Nat. Med. 23, 1394-1396 (2017); Conway et al., J Biol Chem 292, 21253-21263 (2017); Lee et al., 2022, supra).
Cell Culture and biotinylation. […]
FLIPR TI Flux assay. HEK-293 cells were washed with HBSS, and then incubated with loading buffer containing TI sensitive fluorescent dye (https://www.moleculardevices.com), 20 μM bumetanide 20 μM ouabain and 2.5 mM probenecid for 1 h at room temperature (RT) under control conditions or with drugs in the dark using a FlexStation 3 microplate reader (Molecular Devices) and imaged […] for 30 min. Stimulus buffer was added containing 5 mM K^+/0.5 mM Tl^+ and cells were imaged every 1.5 over a 190 second time course The initial rate Tl^+ uptake (Relative Fluorescence Units (RFU) per second) was determined following addition of the stimulus buffer as outlined previously (Conway et al., 2017, supra) (Lee et al., 2022, supra). […]

Q: With C[C@@H]1CN(c2nc3c(c(Nc4ccc(C5CCCCC5)cc4)n2)COC3)CCO1 [Compound A, (R)—N-(4-cyclohexylphenyl)-2-(2-methylmorpholino)-5,7-dihydrofuro[3,4-d]pyrimidin-4-amine] as the compound, how does the “direct binding to KCC2 as measured using CETSA” value (KCC2 [1]) read?
A: The value was “capable of directly binding to KCC2”.

Q: And the “development of late recurrent discharges (LRDs)” value [2]?
A: The value was “reduced”.

Q: What about the EC50 (KCC2 [3]; HEK-293 cells, 1% β-cyclodextrin (BCD) vehicle, read-out: EC50 for KCC2 as measured by TI+ flux) of the same compound?
A: Its EC50 is 261 ± 22.2 nM.

Q: And the “maximum potentiation of KCC2” value (KCC2 [3]; saturating concentration of 3 μM, 1% BCD vehicle)?
A: The value was 90%.
